From PubChem BioAssay (NCI)
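Growth conditions: 96-well plates. Treatment: test compound, 48 hours, 5 concentrations. Analysis: linear interpolation between bracketing concentrations; unreached endpoints set to highest concentration. TGI: concentration producing complete growth inhibition.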

Assays:
Assay in all cases: NCI tumour cell line growth inhibition, 48 h
[1] = system: COLO 205 colon
[2] = system: EKVX NSCLC
[3] = system: SR leukemia
[4] = system: MDA-N
[5] = system: A498 renal
[6] = system: SW-620 colon
[7] = system: OVCAR-5 ovarian
[8] = system: SN12C renal
[9] = system: MALME-3M melanoma
[10] = system: UACC-257 melanoma
[11] = system: UACC-62 melanoma
[12] = system: HOP-92 NSCLC
[13] = system: HCC-2998 colon
[14] = system: IGROV1 ovarian
[15] = system: DU-145 prostate
[16] = system: MOLT-4 leukemia
[17] = system: SNB-75 CNS
[18] = system: NCI-H522 lung

SMILES | TGI [1] | TGI [2] | TGI [3] | TGI [4] | TGI [5] | TGI [6] | TGI [7] | TGI [8] | TGI [9] | TGI [10] | TGI [11] | TGI [12] | TGI [13] | TGI [14] | TGI [15] | TGI [16] | TGI [17] | TGI [18]
O=C(Cn1c2c(c3ccccc31)CCCC2)N1CCCC1 | > 100 µM | > 100 µM | > 100 µM | > 100 µM | > 100 µM | > 100 µM | > 100 µM | > 100 µM | > 100 µM | > 100 µM | > 100 µM | > 100 µM | > 100 µM | > 100 µM |  |  |  | 
Cc1ccc(S(=O)(=O)c2ccsc2NC(=O)C(F)(F)F)cc1 | 24.5 µM | > 100 µM |  | 98.9 µM | > 100 µM | > 100 µM | > 100 µM | 66.8 µM | > 100 µM | > 100 µM | > 100 µM | > 100 µM | > 100 µM | > 100 µM | > 100 µM | 45.9 µM | 77.8 µM | > 100 µM
O=c1oc2ccccc2cc1-c1csc(Nc2ccc(F)cc2)n1 | 14.9 µM | 8.63 µM |  | 16.5 µM | 5.09 µM | 15.3 µM | 20.9 µM | 10.1 µM |  | > 52 µM | 43.9 µM | 24.4 µM | 17.1 µM | 21.9 µM | 11.3 µM | > 25.4 µM | 4.57 µM | 3.82 µM
O=C(O)C1CCCN(CCc2c[nH]c3ccccc23)C1 (configuration not stated) | > 100 µM | > 100 µM |  | > 100 µM | > 100 µM | > 100 µM | > 100 µM | > 100 µM | > 100 µM | > 100 µM | > 100 µM | > 100 µM | > 100 µM | > 100 µM | > 100 µM | > 100 µM | > 100 µM | > 100 µM
COc1ccc2c(c1)-c1nc(=S)n(CCCN(C)C)c3ccc([N+](=O)[O-])c(c13)N2 | 17.6 µM | 14.5 µM |  | 2.2 µM | 22.2 µM | 7.18 µM | 3.62 µM | 10.3 µM | 2.33 µM | 3.6 µM | 25.9 µM | 20.7 µM | 18.6 µM | 2.41 µM | 17.9 µM | 2.15 µM | 22.8 µM | 2.98 µM
CC(=O)Oc1cc(Cl)c(C)c2c1[C@H]1CC[C@]3(C)[C@@H](OC(C)=O)CC[C@H]3[C@@H]1CC2 |  | > 100 µM |  | > 100 µM | > 100 µM | > 100 µM | > 100 µM | > 100 µM | > 100 µM | > 100 µM | > 100 µM | > 100 µM | > 100 µM | > 100 µM | > 100 µM | > 100 µM | > 100 µM | > 100 µM
C/C(Cl)=N/OC(=O)Nc1ccc(S(N)(=O)=O)c(C)c1 | 4.14 µM | 13 µM |  | 24.4 µM | 41.3 µM | 3.27 µM | 34.4 µM | 26.8 µM | 4.5 µM | 27.9 µM | 35.6 µM | 4.7 µM | 32.7 µM | 33.4 µM | 30.5 µM | 6.12 µM | 34.2 µM | 3.45 µM
NC(=S)N1N=C2c3ccccc3CC[C@@H]2[C@@H]1c1ccccc1 | 16.8 µM | > 81.8 µM | 12.6 µM |  | > 83.8 µM | > 59.3 µM | 99.9 µM | 17.3 µM | 66.7 µM | 56.3 µM | 26.1 µM | 47.2 µM | > 55.7 µM | > 80.3 µM |  | 48 µM | 35.6 µM | 4.53 µM
CCOC(=O)c1oc2cc3c(c4c2c1-c1ccccc1N4C)C=CC(C)(C)O3 | > 100 µM | 46.6 µM |  | > 100 µM | > 71.4 µM | > 100 µM | > 100 µM | > 100 µM | 54.3 µM | > 100 µM | > 43.4 µM | 17.7 µM | > 100 µM | 46.5 µM | > 70 µM | > 100 µM | 36.4 µM | 42.6 µM
Cc1ccc(/C(Cl)=C/C=C(C#N)C#N)cc1 | 12.1 µM | 27.5 µM | 7.47 µM |  |  | 3.71 µM | 7.48 µM | 17.4 µM | 16.1 µM | 6.31 µM | 15.7 µM |  |  | 16.2 µM | 23.9 µM | > 100 µM | 37.6 µM | 5.17 µM
O/N=C/c1ncccc1C1OCCO1 | > 100 µM | > 100 µM | > 100 µM |  |  | > 100 µM | > 100 µM | > 100 µM | > 100 µM | > 100 µM | > 100 µM | > 100 µM |  | > 100 µM |  | > 100 µM | > 100 µM | > 100 µM
O=C(NC12CC3CC(CC(F)(C3)C1)C2)c1ccccc1 | > 100 µM | > 100 µM |  |  | > 100 µM | > 100 µM | > 100 µM |  | > 100 µM | > 100 µM | > 100 µM | > 100 µM | > 100 µM | > 100 µM |  | > 100 µM | > 100 µM | > 100 µM
O=c1cc(N2CCNCC2)nc2ccccn12 | > 100 µM | > 100 µM |  | > 100 µM | > 100 µM | > 100 µM | > 100 µM | > 100 µM | > 100 µM | > 100 µM | > 100 µM | > 100 µM | > 100 µM | > 100 µM | > 100 µM | > 100 µM | > 100 µM | > 100 µM
CC(C)(C)C(=O)OCOP(=O)(OCOC(=O)C(C)(C)C)OCC1OC(n2ccc(=O)[nH]c2=O)C(N=[N+]=[N-])C1O (configuration not stated) | 13.5 µM | 20.6 µM |  | 15.8 µM |  | 18.2 µM | 16.1 µM | 22 µM | 1.57 µM | 18.1 µM | 14.6 µM | 5 µM | 13.4 µM | 17.5 µM | 17.6 µM | 31.4 µM | 14.1 µM | 17.5 µM
